Results as given in ChEMBL document CHEMBL4765339, “Design, synthesis, and biological evaluation of 4-substituted-3,4-dihydrobenzo[h]quinoline-2,5,6(1H)-triones as NQO1-directed antitumor agents” (Eur J Med Chem, 2020).

What was measured:
[1] = target: NAD(P)H dehydrogenase [quinone] 1 (Homo sapiens) (UniProt P15559); experiment: Substrate activity at recombinant human C-terminal His-tagged NQO1 (1 to 274 residues) expressed in Escherichia coli assessed as enzyme activity by measuring oxidation of NADPH incubated for 5 mins measured per micromol of enzyme every 5 sec for 1 mins by UV-visible spectrophotometry
[2] = system: A549; experiment: Cytotoxicity against human A549 cells assessed as reduction in cell growth incubated for 48 hrs by MTT assay; type: functional
[3] = system: HepG2; experiment: Cytotoxicity against human HepG2 cells assessed as reduction in cell growth incubated for 48 hrs by MTT assay; type: functional
[4] = system: MCF7; experiment: Cytotoxicity against NQO1-rich human MCF7 cells assessed as reduction in cell growth incubated for 48 hrs by MTT assay; type: functional
[5] = Selectivity index, ratio of GI50 for human A549 cells pretreated for 1 hr with NQO1 inhibitor, dicoumarol followed by incubation with compound for 48 hrs to GI50 for human A549 cells measured after 48 hrs by MTT assay; type: functional
[6] = Selectivity index, ratio of GI50 for human HepG2 cells pretreated for 1 hr with NQO1 inhibitor, dicoumarol followed by incubation with compound for 48 hrs to GI50 for human HepG2 cells measured after 48 hrs by MTT assay; type: functional
[7] = system: HepG2; experiment: Antitumor activity against human HepG2 cells xenografted in athymic nude mouse assessed as inhibition of tumor growth at 20 mg/kg, iv administered once every 2 days for 19 days by caliper analysis relative to control; type: functional; conditions: 456 h, time 19 day
[8] = system: HepG2; experiment: Cytotoxicity against human HepG2 cells assessed as reduction in cell growth pretreated for 1 hr with NQO1 inhibitor, dicoumarol followed by incubation with compound for 48 hrs by MTT assay; type: functional
[9] = Selectivity index, ratio of GI50 for human A549 cells pretreated for 1 hr with ROS scavenger, N-acetyl cysteine followed by incubation with compound for 48 hrs to GI50 for human A549 cells measured after 48 hrs by MTT assay; type: functional
[10] = system: HepG2; experiment: Cytotoxicity against human HepG2 cells assessed as reduction in cell growth pretreated for 1 hr with ROS scavenger, N-acetyl cysteine followed by incubation with compound for 48 hrs by MTT assay; type: functional
[11] = system: A549; experiment: Cytotoxicity against human A549 cells assessed as reduction in cell growth pretreated for 1 hr with ROS scavenger, N-acetyl cysteine followed by incubation with compound for 48 hrs by MTT assay; type: functional
[12] = system: HepG2; experiment: Induction of ROS generation in human HepG2 cells at 5 uM by DCFH-DA staining based flow cytometry analysis; type: functional, cell-based; conditions: time 3-5 hrs, TDE = time-dependent effect
[13] = Selectivity index, ratio of GI50 for human HepG2 cells pretreated for 1 hr with ROS scavenger, N-acetyl cysteine followed by incubation with compound for 48 hrs to GI50 for human HepG2 cells measured after 48 hrs by MTT assay; type: functional
[14] = Cytotoxicity against human L02 cells assessed as reduction in cell growth incubated for 48 hrs by MTT assay; type: cell-based
[15] = system: A549; experiment: Cytotoxicity against human A549 cells assessed as reduction in cell growth pretreated for 1 hr with NQO1 inhibitor, dicoumarol followed by incubation with compound for 48 hrs by MTT assay; type: functional

Row | SMILES | Activity [1] [µmol/min] | also measured
1 | CC(C)C1CC(=O)NC2=C1C(=O)C(=O)c1ccccc12 (stereo not drawn) | 786 | 
2 | O=C1CC(c2ccccc2Cl)C2=C(N1)c1ccccc1C(=O)C2=O (stereo not drawn) | 467 | 
3 | O=C1CC(c2cccs2)C2=C(N1)c1ccccc1C(=O)C2=O (stereo not drawn) | 621 | 
4 | Cc1ccccc1C1CC(=O)NC2=C1C(=O)C(=O)c1ccccc12 (stereo not drawn) | 448 | 
5 | O=C1CC(c2cc([N+](=O)[O-])ccc2Cl)C2=C(N1)c1ccccc1C(=O)C2=O (stereo not drawn) | 195 | 
6 | CCCCCC1CC(=O)NC2=C1C(=O)C(=O)c1ccccc12 (stereo not drawn) | 175 | 
7 | O=C1CC(c2ccco2)C2=C(N1)c1ccccc1C(=O)C2=O (stereo not drawn) | 613 | 
8 | O=C1CC(C2CCCCC2)C2=C(N1)c1ccccc1C(=O)C2=O (stereo not drawn) | 283 | 
9 | CCCC1CC(=O)NC2=C1C(=O)C(=O)c1ccccc12 (stereo not drawn) | 486 | 
10 | O=C1CC(c2ccc([N+](=O)[O-])cc2)C2=C(N1)c1ccccc1C(=O)C2=O (stereo not drawn) | 182 | 
11 | O=C1CC(C2CCCC2)C2=C(N1)c1ccccc1C(=O)C2=O (stereo not drawn) | 491 | 
12 | CC1(C)CCC2=C(O1)c1ccccc1C(=O)C2=O [LAPACHONE] |  | RatioGI50 [5]: 2; RatioGI50 [6]: 2; inhibition in vivo at 20 mg/kg [7]: 67.3%; GI50 [2]: 3.32 µM; GI50 [8]: 6.3 µM; RatioGI50 [9]: 2; GI50 [3]: 2.83 µM; GI50 [10]: 6.21 µM; GI50 [4]: 4.17 µM; GI50 [11]: 6.19 µM; Activity [12]: Tde; RatioGI50 [13]: 2; GI50 at 48 h [14]: 4.54 µM; GI50 [15]: 6 µM

Further lines, with some results ahead:

Row | Activity [1] [µmol/min] | SMILES | also measured
13 | 760 | O=C1CC(c2ccc(Cl)cc2Cl)C2=C(N1)c1ccccc1C(=O)C2=O (stereo not drawn) | GI50 [2]: 3.13 µM; GI50 [3]: 3.27 µM; GI50 [4]: 8.81 µM
14 | 684 | COc1cc(C2CC(=O)NC3=C2C(=O)C(=O)c2ccccc23)cc(OC)c1OC (stereo not drawn) | 
15 | 1030 | O=C1CC(c2cccc(C(F)(F)F)c2)C2=C(N1)c1ccccc1C(=O)C2=O (stereo not drawn) | GI50 [2]: 12.6 µM; GI50 [3]: 4.24 µM; GI50 [4]: 8.96 µM
16 | 180 | COc1ccc(OC)c(C2CC(=O)NC3=C2C(=O)C(=O)c2ccccc23)c1 (stereo not drawn) | 
17 | 1360 | O=C1CC(c2ccccc2F)C2=C(N1)c1ccccc1C(=O)C2=O (stereo not drawn) | GI50 [2]: 3.89 µM; GI50 [3]: 2.57 µM; GI50 [4]: 2.3 µM
18 | 392 | O=C1CC(c2ccc(F)cc2)C2=C(N1)c1ccccc1C(=O)C2=O (stereo not drawn) | 
19 | 1440 | COc1cc(C2CC(=O)NC3=C2C(=O)C(=O)c2ccccc23)ccc1O (stereo not drawn) | GI50 [2]: 4.38 µM; GI50 [3]: 2.24 µM; GI50 [4]: 1.89 µM
20 | 160 | O=C1CC(c2c(F)cccc2F)C2=C(N1)c1ccccc1C(=O)C2=O (stereo not drawn) | 
21 | 333 | Cc1cccc(C2CC(=O)NC3=C2C(=O)C(=O)c2ccccc23)c1 (stereo not drawn) | 
22 | 936 | O=C1CC(c2ccc(F)cc2F)C2=C(N1)c1ccccc1C(=O)C2=O (stereo not drawn) | 
23 | 194 | COc1cc(OC)cc(C2CC(=O)NC3=C2C(=O)C(=O)c2ccccc23)c1 (stereo not drawn) | 
24 | 586 | COc1cccc(C2CC(=O)NC3=C2C(=O)C(=O)c2ccccc23)c1 (stereo not drawn) | 
25 | 354 | COc1ccccc1C1CC(=O)NC2=C1C(=O)C(=O)c1ccccc12 (stereo not drawn) | 
26 | 275 | Cc1ccc(C2CC(=O)NC3=C2C(=O)C(=O)c2ccccc23)cc1 (stereo not drawn) | 
27 | 509 | O=C1CC(c2cccc(O)c2)C2=C(N1)c1ccccc1C(=O)C2=O (stereo not drawn) | 
28 | 364 | O=C1CC(c2ccccc2)C2=C(N1)c1ccccc1C(=O)C2=O (stereo not drawn) | GI50 [2]: 11.7 µM; GI50 [3]: 3.09 µM; GI50 [4]: 15.3 µM
29 | 557 | O=C1CC(c2ccc(Cl)cc2)C2=C(N1)c1ccccc1C(=O)C2=O (stereo not drawn) | 
30 | 192 | COc1ccc(C2CC(=O)NC3=C2C(=O)C(=O)c2ccccc23)cc1F (stereo not drawn) | 
